Data: ChEMBL document CHEMBL3596179, “Structural development of stabilized helical peptides as inhibitors of estrogen receptor (ER)-mediated transcription” (Bioorg Med Chem, 2015)
The source made the active and inactive calls. No cut-off for these calls is given here. Positions of bridges follow the written chain, without caps; N, C: chain ends. Non-standard residues stand in square brackets, D forms with d. Residues, ends and D or L forms follow the SMILES beside them. ξ: configuration not given here. ξtBuAla = CC(C)(C)CC(N)C(=O)O; ξAbu = CCC(N)C(=O)O

Assays:
[1] = target: T1, Estrogen receptor (Homo sapiens, UniProt P03372)
T1 sequence (P03372 whole entry): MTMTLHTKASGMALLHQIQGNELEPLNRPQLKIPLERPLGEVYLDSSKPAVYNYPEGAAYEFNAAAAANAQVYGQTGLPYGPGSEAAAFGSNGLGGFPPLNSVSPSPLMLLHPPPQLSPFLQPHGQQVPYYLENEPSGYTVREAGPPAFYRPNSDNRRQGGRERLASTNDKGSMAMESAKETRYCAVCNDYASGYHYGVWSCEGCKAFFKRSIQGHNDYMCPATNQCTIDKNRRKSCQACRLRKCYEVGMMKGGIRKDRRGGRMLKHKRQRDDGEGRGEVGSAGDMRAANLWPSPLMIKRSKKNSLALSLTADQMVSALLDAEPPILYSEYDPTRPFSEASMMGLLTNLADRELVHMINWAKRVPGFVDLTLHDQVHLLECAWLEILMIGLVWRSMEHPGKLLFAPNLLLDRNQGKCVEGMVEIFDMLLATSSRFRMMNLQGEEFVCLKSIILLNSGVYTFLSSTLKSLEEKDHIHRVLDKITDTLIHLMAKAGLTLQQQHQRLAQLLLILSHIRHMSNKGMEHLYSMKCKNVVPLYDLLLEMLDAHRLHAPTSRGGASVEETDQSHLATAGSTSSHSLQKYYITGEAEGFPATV
Description: Inhibition of estrogen receptor alpha (unknown origin)-SRC1 coactivator interaction incubated for 1 hr by receptor cofactor assay system based method

[2] = target: T2, Estrogen receptor (Homo sapiens) (UniProt P03372); assay: Inhibition of estrogen receptor-mediated gene expression in human T47D cells assessed as reduction in estrogen-induced pS2 mRNA expression at 3 to 30 uM incubated for 24 hrs by qPCR method; type: cell-based
T2 sequence (whole entry): T1 sequence (P03372 whole entry)

[3] = system: T47D; assay: Drug uptake in human T47D cells at 1 uM incubated for 3 hrs by Hoechst 33342 dye based confocal laser scanning microscopy; type: ADME, cell-based
[4] = target: T2, Estrogen receptor (Homo sapiens); settings: T47D, 10 uM
Description: Inhibition of estrogen receptor-mediated gene expression in human T47D cells assessed as reduction in estrogen-induced pS2 mRNA expression at 10 uM incubated for 24 hrs by qPCR method

[5] = target: T2, Estrogen receptor (Homo sapiens); assay: Inhibition of estrogen receptor-mediated gene expression in human T47D cells assessed as reduction in estrogen-induced pS2 mRNA expression at 3 uM incubated for 24 hrs by qPCR method; type: cell-based

IC50 [1]	Compound	other results
> 1000 nM	C=CCC(NC(=O)[C@H](CC(C)C)NC(=O)[C@@H](NC(=O)[C@@H](CC=C)NC(=O)[C@@H](N)CCCNC(=N)N)[C@@H](C)CC)C(=O)N[C@@H](CCCNC(=N)N)C(=O)NC(CC(C)(C)C)C(=O)N[C@@H](CC(C)C)C(=O)N[C@@H](CCC(N)=O)C(N)=O (stereo not given in full)	–
> 1000 nM	H-HKILHRLLQGGGRRRRRRR-NH2	inhibition [2]: inactive
–	CC[C@H](C)[C@@H]1NC(=O)[C@H](NC(=O)[C@@H](N)CCCNC(=N)N)C/C=C/C[C@@H](C(=O)N[C@@H](CCCNC(=N)N)C(=O)NC(CC(C)(C)C)C(=O)N[C@@H](CC(C)C)C(=O)N[C@@H](CCC(N)=O)C(=O)NCC(=O)NCC(=O)NCC(=O)N[C@@H](CCCNC(=N)N)C(=O)N[C@@H](CCCNC(=N)N)C(=O)N[C@@H](CCCNC(=N)N)C(=O)N[C@@H](CCCNC(=N)N)C(=O)N[C@@H](CCCNC(=N)N)C(=O)N[C@@H](CCCNC(=N)N)C(=O)N[C@@H](CCCNC(=N)N)C(N)=O)NC(=O)[C@H](CC(C)C)NC1=O (stereo not given in full)	inhibition [2]: inactive
> 1000 nM	H-HKILHRLLQ-NH2	–
> 1000 nM	CCC(NC(=O)[C@@H](N)CCCNC(=N)N)C(=O)N[C@H](C(=O)N[C@@H](CC(C)C)C(=O)N[C@@H](Cc1cnc[nH]1)C(=O)N[C@@H](CCCNC(=N)N)C(=O)NC(CC(C)(C)C)C(=O)N[C@@H](CC(C)C)C(=O)N[C@@H](CCC(N)=O)C(N)=O)[C@@H](C)CC (stereo not given in full) (H-R[ξAbu]ILHR[ξtBuAla]LQ-NH2)	–
–	CC[C@H](C)[C@@H]1NC(=O)[C@H](NC(=O)[C@@H](N)CCCNC(=N)N)C/C=C\C[C@@H](C(=O)N[C@@H](CCCNC(=N)N)C(=O)NC(CC(C)(C)C)C(=O)N[C@@H](CC(C)C)C(=O)N[C@@H](CCC(N)=O)C(=O)NCC(=O)NCC(=O)NCC(=O)N[C@@H](CCCNC(=N)N)C(=O)N[C@@H](CCCNC(=N)N)C(=O)N[C@@H](CCCNC(=N)N)C(=O)N[C@@H](CCCNC(=N)N)C(=O)N[C@@H](CCCNC(=N)N)C(=O)N[C@@H](CCCNC(=N)N)C(=O)N[C@@H](CCCNC(=N)N)C(N)=O)NC(=O)[C@H](CC(C)C)NC1=O (stereo not given in full)	inhibition [2]: inactive
35 nM	CC[C@H](C)[C@@H]1NC(=O)[C@H](NC(=O)[C@@H](N)CCCCN)CSSC[C@@H](C(=O)N[C@@H](CCCNC(=N)N)C(=O)N[C@@H](CC(C)C)C(=O)N[C@@H](CC(C)C)C(=O)N[C@@H](CCC(N)=O)C(N)=O)NC(=O)[C@H](CC(C)C)NC1=O (H-K[dC]ILCRLLQ-NH2; disulfide 2-5)	–
–	CC[C@H](C)[C@@H]1NC(=O)[C@H](NC(=O)[C@H](CCCCN)NC(=O)c2ccc3c(c2)C2(OC3=O)c3ccc(O)cc3Oc3cc(O)ccc32)CSSC[C@@H](C(=O)N[C@@H](CCCNC(=N)N)C(=O)N[C@@H](CC(C)C)C(=O)N[C@@H](CC(C)C)C(=O)N[C@@H](CCC(N)=O)C(=O)NCC(=O)NCC(=O)NCC(=O)N[C@@H](CCCNC(=N)N)C(=O)N[C@@H](CCCNC(=N)N)C(=O)N[C@@H](CCCNC(=N)N)C(=O)N[C@@H](CCCNC(=N)N)C(=O)N[C@@H](CCCNC(=N)N)C(=O)N[C@@H](CCCNC(=N)N)C(=O)N[C@@H](CCCNC(=N)N)C(N)=O)NC(=O)[C@H](CC(C)C)NC1=O	Drug uptake [3]: Active
749 nM	CC[C@H](C)[C@@H]1NC(=O)[C@H](NC(=O)[C@@H](N)CCCCN)CSSC[C@@H](C(=O)N[C@@H](CCCNC(=N)N)C(=O)N[C@@H](CC(C)C)C(=O)N[C@@H](CC(C)C)C(=O)N[C@@H](CCC(N)=O)C(=O)NCC(=O)NCC(=O)NCC(=O)N[C@@H](CCCNC(=N)N)C(=O)N[C@@H](CCCNC(=N)N)C(=O)N[C@@H](CCCNC(=N)N)C(=O)N[C@@H](CCCNC(=N)N)C(=O)N[C@@H](CCCNC(=N)N)C(=O)N[C@@H](CCCNC(=N)N)C(=O)N[C@@H](CCCNC(=N)N)C(N)=O)NC(=O)[C@H](CC(C)C)NC1=O	inhibition [4]: 95%; inhibition [5]: 20%
–	CC[C@H](C)[C@@H]1NC(=O)[C@H](NC(=O)[C@H](CCCCN)NC(=O)c2ccc3c(c2)C2(OC3=O)c3ccc(O)cc3Oc3cc(O)ccc32)CSSC[C@@H](C(=O)N[C@@H](CCCNC(=N)N)C(=O)N[C@@H](CC(C)C)C(=O)N[C@@H](CC(C)C)C(=O)N[C@@H](CCC(N)=O)C(N)=O)NC(=O)[C@H](CC(C)C)NC1=O	Drug uptake [3]: Not Active
> 1000 nM	N=C(N)NCCC[C@H](NC(=O)[C@H](CCCNC(=N)N)NC(=O)[C@H](CCCNC(=N)N)NC(=O)[C@H](CCCNC(=N)N)NC(=O)[C@H](CCCNC(=N)N)NC(=O)[C@H](CCCNC(=N)N)NC(=O)[C@H](CCCNC(=N)N)NC(=O)[C@@H](N)Cc1ccc(O)cc1)C(N)=O	inhibition [2]: inactive
13 nM	CC[C@H](C)[C@@H]1NC(=O)[C@H](NC(=O)[C@@H](N)CCCNC(=N)N)CSSC[C@@H](C(=O)N[C@@H](CCCNC(=N)N)C(=O)NC(CC(C)(C)C)C(=O)N[C@@H](CC(C)C)C(=O)N[C@@H](CCC(N)=O)C(N)=O)NC(=O)[C@H](CC(C)C)NC1=O (stereo not given in full)	–
94 nM	CC[C@H](C)[C@@H]1NC(=O)[C@H](NC(=O)[C@@H](N)CCCNC(=N)N)CSSC[C@@H](C(=O)N[C@@H](CCCNC(=N)N)C(=O)NC(CC(C)(C)C)C(=O)N[C@@H](CC(C)C)C(=O)N[C@@H](CCC(N)=O)C(=O)NCC(=O)NCC(=O)NCC(=O)N[C@@H](CCCNC(=N)N)C(=O)N[C@@H](CCCNC(=N)N)C(=O)N[C@@H](CCCNC(=N)N)C(=O)N[C@@H](CCCNC(=N)N)C(=O)N[C@@H](CCCNC(=N)N)C(=O)N[C@@H](CCCNC(=N)N)C(=O)N[C@@H](CCCNC(=N)N)C(N)=O)NC(=O)[C@H](CC(C)C)NC1=O (stereo not given in full)	inhibition [5]: 87%
> 1000 nM	CC[C@H](C)[C@@H]1NC(=O)[C@H](NC(=O)[C@H](CCCNC(=N)N)NC(=O)CNC(=O)CNC(=O)CNC(=O)[C@H](CCCNC(=N)N)NC(=O)[C@H](CCCNC(=N)N)NC(=O)[C@H](CCCNC(=N)N)NC(=O)[C@H](CCCNC(=N)N)NC(=O)[C@H](CCCNC(=N)N)NC(=O)[C@H](CCCNC(=N)N)NC(=O)[C@@H](N)CCCNC(=N)N)CSSC[C@@H](C(=O)N[C@@H](CCCNC(=N)N)C(=O)NC(CC(C)(C)C)C(=O)N[C@@H](CC(C)C)C(=O)N[C@@H](CCC(N)=O)C(N)=O)NC(=O)[C@H](CC(C)C)NC1=O (stereo not given in full)	inhibition [2]: inactive
670 nM	CCC(NC(=O)[C@H](CC(C)C)NC(=O)[C@@H](NC(=O)C(CC)NC(=O)[C@@H](N)CCCNC(=N)N)[C@@H](C)CC)C(=O)N[C@@H](CCCNC(=N)N)C(=O)NC(CC(C)(C)C)C(=O)N[C@@H](CC(C)C)C(=O)NCC(N)=O (stereo not given in full) (H-R[ξAbu]IL[ξAbu]R[ξtBuAla]LG-NH2)	–
110 nM	CC[C@H](C)[C@@H]1NC(=O)[C@H](NC(=O)[C@@H](N)CCCNC(=N)N)C/C=C\C[C@@H](C(=O)N[C@@H](CCCNC(=N)N)C(=O)NC(CC(C)(C)C)C(=O)N[C@@H](CC(C)C)C(=O)N[C@@H](CCC(N)=O)C(N)=O)NC(=O)[C@H](CC(C)C)NC1=O (stereo not given in full)	–
620 nM	CCC(NC(=O)[C@H](CC(C)C)NC(=O)[C@@H](NC(=O)[C@H](Cc1cnc[nH]1)NC(=O)[C@@H](N)CCCNC(=N)N)[C@@H](C)CC)C(=O)N[C@@H](CCCNC(=N)N)C(=O)NC(CC(C)(C)C)C(=O)N[C@@H](CC(C)C)C(=O)N[C@@H](CCC(N)=O)C(N)=O (stereo not given in full) (H-RHIL[ξAbu]R[ξtBuAla]LQ-NH2)	–
390 nM	CC[C@H](C)[C@@H]1NC(=O)[C@H](NC(=O)[C@@H](N)CCCNC(=N)N)C/C=C/C[C@@H](C(=O)N[C@@H](CCCNC(=N)N)C(=O)NC(CC(C)(C)C)C(=O)N[C@@H](CC(C)C)C(=O)N[C@@H](CCC(N)=O)C(N)=O)NC(=O)[C@H](CC(C)C)NC1=O (stereo not given in full)	–
> 1000 nM	CC[C@H](C)[C@@H]1NC(=O)[C@H](NC(=O)[C@@H](N)CCCNC(=N)N)CCCC[C@@H](C(=O)N[C@@H](CCCNC(=N)N)C(=O)NC(CC(C)(C)C)C(=O)N[C@@H](CC(C)C)C(=O)N[C@@H](CCC(N)=O)C(N)=O)NC(=O)[C@H](CC(C)C)NC1=O (stereo not given in full)	–
